Each molecule was assayed on IL-17A/A (assay: IL-17A/A HEK-Blue cell assay). Details: HEK-Blue, 20 h, IL-17A/A inhibition, HEK-Blue IL-17A reporter cell line, IL17A/A 5 ng/mL, SEAP read at A630, read-out: AA IC50.
Format: cell-based
Summary of the method: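 HEK 293 reporter cells expressing IL-17RA, IL-17RC and Act1, stimulated with 5 ng/mL IL17A/A or IL17A/F for 20 h alongside compound (10 μM to 27 pM, 0.1% DMSO). NFκB-driven SEAP in the medium read at A630 with Quanti-Blue; IC50 from 4-parameter fit.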

IC50, < 100 nM:
CCn1nccc1C(=O)N[C@H](c1cn2nc(C[C@H]3C[C@@H](C(F)(F)F)CNC3=O)c(CN3CCCCC3)cc2n1)C1CCC(F)(F)CC1 [Compound 107, N—((S)-(4,4-difluorocyclohexyl)(6-(((3R,5R)-2-oxo-5-(trifluoromethyl)piperidin-3-yl)methyl)-7-(piperidin-1-ylmethyl)imidazo[1,2-b]pyridazin-2-yl)methyl)-1-ethyl-1H-pyrazole-5-carboxamide]
CCn1nccc1C(=O)N[C@H](c1cn2nc(C[C@H]3C[C@@H](C(F)(F)F)CNC3=O)c(CN3CCOCC3)cc2n1)C1CCC(F)(F)CC1 [Compound 108, N—((S)-(4,4-difluorocyclohexyl)(7-(morpholinomethyl)-6-(((3R,5R)-2-oxo-5-(trifluoromethyl)piperidin-3-yl)methyl)imidazo[1,2-b]pyridazin-2-yl)methyl)-1-ethyl-1H-pyrazole-5-carboxamide]
CCn1nccc1C(=O)N[C@H](c1cn2nc(C[C@H]3C[C@@H](C(F)(F)F)CNC3=O)c(CN3CC(F)(F)C3)cc2n1)C1CCC(F)(F)CC1 [Compound 109, N—((S)-(7-((3,3-difluoroazetidin-1-yl)methyl)-6-(((3R,5R)-2-oxo-5-(trifluoromethyl)piperidin-3-yl)methyl)imidazo[1,2-b]pyridazin-2-yl)(4,4-difluorocyclohexyl)methyl)-1-ethyl-1H-pyrazole-5-carboxamide]
CCn1nccc1C(=O)N[C@H](c1cn2nc(C[C@H]3C[C@@H](C(F)(F)F)CNC3=O)c([C@@H](C)N(C)CC(F)(F)F)cc2n1)C1CCC(F)(F)CC1 [Compound 110, N-((1S)-(4,4-difluorocyclohexyl)(7-(1-(methyl(2,2,2-trifluoroethyl)amino)ethyl)-6-(((3R,5R)-2-oxo-5-(trifluoromethyl)piperidin-3-yl)methyl)imidazo[1,2-b]pyridazin-2-yl)methyl)-1-ethyl-1H-pyrazole-5-carboxamide]
CCn1nccc1C(=O)N[C@H](c1cn2nc(C[C@H]3C[C@@H](C(F)(F)F)CNC3=O)c(CN(C)C)cc2n1)C1CCC(F)(F)CC1 [Compound 111, N—((S)-(4,4-difluorocyclohexyl)(7-((dimethylamino)methyl)-6-(((3R,5R)-2-oxo-5-(trifluoromethyl)piperidin-3-yl)methyl)imidazo[1,2-b]pyridazin-2-yl)methyl)-1-ethyl-1H-pyrazole-5-carboxamide]
CCn1nccc1C(=O)N[C@H](c1cn2nc(C[C@H]3C[C@@H](C(F)(F)F)CNC3=O)c(CNC)cc2n1)C1CCC(F)(F)CC1 [Compound 112, N—((S)-(4,4-difluorocyclohexyl)(7-((methylamino)methyl)-6-(((3R,5R)-2-oxo-5-(trifluoromethyl)piperidin-3-yl)methyl)imidazo[1,2-b]pyridazin-2-yl)methyl)-1-ethyl-1H-pyrazole-5-carboxamide]
CCn1nccc1C(=O)N[C@H](c1cn2nc(C[C@H]3C[C@@H](C(F)(F)F)CNC3=O)c(CN(C)C3CC3)cc2n1)C1CCC(F)(F)CC1 [Compound 113, N—((S)-(7-((cyclopropyl(methyl)amino)methyl)-6-(((3R,5R)-2-oxo-5-(trifluoromethyl)piperidin-3-yl)methyl)imidazo[1,2-b]pyridazin-2-yl)(4,4-difluorocyclohexyl)methyl)-1-ethyl-1H-pyrazole-5-carboxamide]
CCn1nccc1C(=O)N[C@H](c1cn2nc(C[C@H]3C[C@@H](C(F)(F)F)CNC3=O)c(CN(C)C3COC3)cc2n1)C1CCC(F)(F)CC1 [Compound 114, N—((S)-(4,4-difluorocyclohexyl)(7-((methyl(oxetan-3-yl)amino)methyl)-6-(((3R,5R)-2-oxo-5-(trifluoromethyl)piperidin-3-yl)methyl)imidazo[1,2-b]pyridazin-2-yl)methyl)-1-ethyl-1H-pyrazole-5-carboxamide]
CCn1nccc1C(=O)N[C@H](c1cn2nc(C[C@H]3C[C@@H](C(F)(F)F)CNC3=O)c(CNCC(F)(F)F)cc2n1)C1CCC(F)(F)CC1 [Compound 115, N—((S)-(4,4-difluorocyclohexyl)(6-(((3R,5R)-2-oxo-5-(trifluoromethyl)piperidin-3-yl)methyl)-7-(((2,2,2-trifluoroethyl)amino)methyl)imidazo[1,2-b]pyridazin-2-yl)methyl)-1-ethyl-1H-pyrazole-5-carboxamide]
CCn1nccc1C(=O)N[C@H](c1cn2nc(C[C@H]3C[C@@H](C(F)(F)F)CNC3=O)c(CN(C)CC(F)(F)F)cc2n1)C1CCC(F)(F)CC1 [Compound 116, N—((S)-(4,4-difluorocyclohexyl)(7-((methyl(2,2,2-trifluoroethyl)amino)methyl)-6-(((3R,5R)-2-oxo-5-(trifluoromethyl)piperidin-3-yl)methyl)imidazo[1,2-b]pyridazin-2-yl)methyl)-1-ethyl-1H-pyrazole-5-carboxamide]
CCn1nccc1C(=O)N[C@H](c1cn2nc(C[C@H]3C[C@@H](C(F)(F)F)CNC3=O)c(CN(CC(F)(F)F)C3CC3)cc2n1)C1CCC(F)(F)CC1 [Compound 117, N—((S)-(7-((cyclopropyl(2,2,2-trifluoroethyl)amino)methyl)-6-(((3R,5R)-2-oxo-5-(trifluoromethyl)piperidin-3-yl)methyl)imidazo[1,2-b]pyridazin-2-yl)(4,4-difluorocyclohexyl)methyl)-1-ethyl-/H-pyrazole-5-carboxamide]
CCn1nccc1C(=O)N[C@H](c1cn2nc(C[C@H]3C[C@@H](C(F)(F)F)CNC3=O)c(C3CCS(=O)(=O)CC3)cc2n1)C1CCC(F)(F)CC1 [Compound 118, N—((S)-(4,4-difluorocyclohexyl)(7-(1,1-dioxidotetrahydro-2H-thiopyran-4-yl)-6-(((3R,5R)-2-oxo-5-(trifluoromethyl)piperidin-3-yl)methyl)imidazo[1,2-b]pyridazin-2-yl)methyl)-1-ethyl-1H-pyrazole-5-carboxamide]
